Patent US20250041190A1, “Composition and application, in particular cosmetic” (MICROPHYT, priority 2021, published 2025)

Key:
neuropeptide CGRP [1] = test: CGRP ELISA assay in co-culture of keratinocytes and sensory neurons, oxidative stress with AITC; type: cell-based, human; conditions: positive control: AITC 1 mM alone, 30 min stress; unstressed control (DMSO 0.2%) = 100; n=6
Protocol: (§1) Sensory neurons were obtained from hiPS cells (human induced pluripotent stem cells), which were themselves obtained from human fibroblasts. The cells were seeded and maintained for 6 days in a differentiation-inducing medium at 37° C. (5% CO2). The culture medium was changed every 2 days. After 9 days in culture, the culture medium was replaced with a maturation medium. Cells were maintained in culture at a temperature of 37° C. under 5% CO2. The culture medium was changed every 2-3 days. After 14 days in culture, commercial keratinocytes from an adult donor (Lonza) were added to the differentiated hiPS cell culture. The co-culture was maintained in a culture medium consisting of a mixture of maturation medium and keratinocyte growth medium (Promocell) at a temperature of 37° C. under 5% CO2. The culture medium was changed every 2-3 days.
(§2) After a 17-day co-culture period, the composition was added to the medium at a final concentration by weight relative to the total weight of the medium and composition of 0.01% or 0.05% (w/w). […]
CGRP assay: After a 30-minute stress period, the culture supernatants were recovered and a CGRP assay by ELISA was performed. The results are expressed as the mean of 6 samples (n=6). […]

[2] = system: MOR receptor (μ-opioid receptor); test: MOR receptor immunolabeling in co-culture of human keratinocytes and sensory neurons stressed with AITC; type: cell-based; conditions: positive control: AITC 1 mM alone; composition-free control (DMSO 0.2%) = 100; n=6
Protocol: as §1, §2
(§3) Photographs were taken with an automated microscope (InCell 2200; GE Healthcare) at ×20 magnification. MOR marker expression density was measured and compared with the control condition, corresponding to the mean of 6 samples (n=6). […]

[3] = system: MOR receptor (μ-opioid receptor); test: MOR receptor immunolabeling in co-culture of human keratinocytes and sensory neurons stressed with capsaicin; type: cell-based; conditions: positive control: capsaicin 10 μM alone; composition-free control (DMSO 0.2%) = 100; n=6
Protocol: as §1, §2, §3

[4] = system: co-culture of sensory neurons and keratinocytes; test: Length of neuronal extensions in co-culture of sensory neurons and keratinocytes stressed with capsaicin; type: cell-based, human; conditions: positive control: capsaicin 10 μM alone; composition-free control (DMSO 0.2%) = 100; n=6
Protocol: as §1
After a 17-day co-culture period, the composition was added to the medium at a final concentration by weight relative to the total weight of the medium and composition of 0.01% or 0.05% (w/w).
After a 24-hour incubation period, capsaicin (10 µM) or AITC (1 mM) or DMSO (0.2% w/w) as a control, was added to the co-culture in the presence of the composition according to the invention. […]
A neuron count was performed and the length of the neuronal extensions was measured for each condition. […]

neuropeptide CGRP [5] = test: CGRP ELISA assay in co-culture of keratinocytes and sensory neurons, oxidative stress with capsaicin; type: cell-based, human; conditions: positive control: capsaicin 10 μM alone, 30 min stress; unstressed control (DMSO 0.2%) = 100; n=6
Protocol: Sensory neurons were obtained from hiPS cells (human induced pluripotent stem cells), which were themselves obtained from human fibroblasts. The cells were seeded and maintained for 6 days in a differentiation-inducing medium at 37° C. (5% CO2). The culture medium was changed every 2 days. After 9 days in culture, the culture medium was replaced with a maturation medium. Cells were maintained in culture at a temperature of 37° C. under 5% CO2. The culture medium was changed every 2-3 days. After 14 days in culture, commercial keratinocytes from an adult donor (Lonza) were added to the differentiated hiPS cell culture. The co-culture was maintained in a culture medium consisting of a mixture of maturation medium and keratinocyte growth medium (Promocell) at a temperature of 37° C. under 5% CO2. The culture medium was changed every 2-3 days. After a 17-day co-culture period, the composition was added to the medium at a final concentration by weight relative to the total weight of the medium and composition of 0.01% or 0.05% (w/w). After a 24-hour incubation period, capsaicin (10 µM) or AITC (1 mM) or DMSO (0.2% w/w) as a control, was added to the co-culture in the presence of the composition according to the invention. […] The results are expressed as the mean of 6 samples (n=6).

| SMILES | Protein amount of CGRP (%) (neuropeptide CGRP [1]) | Level of MOR receptor protein expression (%) [2] | Level of MOR receptor protein expression (%) [3] | Length of neuronal extensions/nbr of neurons (%) [4] | Protein amount of CGRP (%) (neuropeptide CGRP [5]) |
| --- | --- | --- | --- | --- | --- |
| C=CCN=C=S [AITC, allyl isothiocyanate] | 132% | 78% |  |  |  |
| COc1cc(CNC(=O)CCCC/C=C/C(C)C)ccc1O [capsaicin] |  |  | 82% | 76% | 135% |
